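How tested: cells in 96-well plates exposed to compound for 48 hours at five concentrations. GI50 is the concentration that inhibits growth by half.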 Active and inactive are the calls of the source. Cut-off read from the data, not from the text of the source: active = GI50 up to about 1.1 µM and inactive = higher.
Experiments:
Assay in all cases: DTP human tumour cell line panel, 48 h
M19-MEL = test system: M19-MEL
SNB-78 = test system: SNB-78
LXFL 529 = test system: LXFL 529
HOP-18 = test system: HOP-18
DLD-1 = test system: DLD-1
DMS-273 = test system: DMS-273
DMS-114 = test system: DMS-114
XF498 = test system: XF498
RXF 631 = test system: RXF 631

Measured: GI50

[Zn+2][N+]12CCN3CCN4CCN(CC1)[PH]432 (stereo not given)
inactive: M19-MEL > 100 µM | SNB-78 > 100 µM | LXFL 529 > 100 µM | HOP-18 > 100 µM | DLD-1 > 100 µM | DMS-273 > 100 µM | DMS-114 > 100 µM

CN(C)C(c1ccccc1)C(O)c1ccccc1 (stereo not given)
inactive: M19-MEL > 100 µM | SNB-78 > 100 µM | LXFL 529 > 100 µM | HOP-18 > 100 µM | DLD-1 > 100 µM | DMS-273 > 100 µM | XF498 > 100 µM | RXF 631 > 100 µM | DMS-114 > 100 µM

CC(=O)NC(ON1C(=O)COc2ccccc21)C(Cl)(Cl)Cl (stereo not given)
inactive: SNB-78 > 100 µM | LXFL 529 > 100 µM | DLD-1 > 100 µM | DMS-273 > 100 µM | XF498 > 100 µM

COC(=O)/C(=N\NC(N)=O)C(C(=O)C=C(C)C)C(=O)C(=O)Nc1ccc(Cl)c(Cl)c1 (stereo not given)
inactive: M19-MEL > 100 µM | SNB-78 > 100 µM | LXFL 529 > 100 µM | HOP-18 > 100 µM | DLD-1 > 100 µM | DMS-273 > 100 µM | XF498 > 100 µM | RXF 631 > 100 µM | DMS-114 > 100 µM

CCOC(=O)C(=O)Nc1c(C)cccc1C(C)C
inactive: M19-MEL > 100 µM | SNB-78 > 100 µM | LXFL 529 > 100 µM | HOP-18 > 100 µM | DLD-1 > 100 µM | DMS-273 > 100 µM | XF498 > 100 µM | RXF 631 > 100 µM | DMS-114 > 100 µM

CCCCCC(=O)OCCOCCOCCOCCOCCOCc1ccccc1
inactive: SNB-78 > 100 µM | HOP-18 > 100 µM | DLD-1 > 100 µM | DMS-273 > 100 µM | XF498 > 100 µM | DMS-114 > 100 µM

c1ccc2c(c1)Sc1ccccc1N2C1CN2CCC1CC2 (stereo not given)
inactive: M19-MEL 16 µM | SNB-78 14.4 µM | LXFL 529 16.9 µM | HOP-18 18.2 µM | DLD-1 15.8 µM | DMS-273 16.4 µM | XF498 13.9 µM | DMS-114 17.9 µM

COC(=O)c1ccc(C(=O)OC)c2nc3cc(C)ccc3nc12
inactive: SNB-78 > 100 µM | LXFL 529 > 100 µM | HOP-18 > 100 µM | DLD-1 > 100 µM | DMS-273 > 100 µM | XF498 > 100 µM | RXF 631 > 100 µM | DMS-114 > 100 µM

COC(=O)/C(=N/NC(=O)C[N+](C)(C)C)C(C(=O)OC)C(=O)C(=O)Nc1ccc(F)cc1 (stereo not given)
inactive: M19-MEL > 100 µM | SNB-78 > 100 µM | LXFL 529 > 100 µM | HOP-18 > 100 µM | DLD-1 > 100 µM | DMS-273 > 100 µM | RXF 631 > 100 µM | DMS-114 > 100 µM

CSc1nc(-c2ccccc2)nc(N2CCOCC2)[s+]1
inactive: M19-MEL > 100 µM | SNB-78 > 100 µM | LXFL 529 37.3 µM | HOP-18 > 100 µM | DLD-1 91.8 µM | DMS-273 > 100 µM

COc1ccc(C(C#N)NNC(=O)Cc2ccccc2)cc1OC (stereo not given)
inactive: M19-MEL > 100 µM | SNB-78 > 100 µM | LXFL 529 > 100 µM | HOP-18 > 100 µM | DLD-1 > 100 µM | DMS-273 > 100 µM | DMS-114 > 100 µM

Cc1cc(Cl)ccc1NC(=O)CCCC(=O)C1CCC/C1=N\NC(=O)CC#N (stereo not given)
inactive: M19-MEL > 100 µM | SNB-78 > 100 µM | LXFL 529 > 100 µM | HOP-18 17.2 µM | DLD-1 > 100 µM | DMS-273 > 100 µM | XF498 > 100 µM | RXF 631 > 100 µM | DMS-114 > 100 µM

Cc1cc2c(c(C(=O)O)c1C)-c1cccc(Cl)c1C2=O
inactive: M19-MEL > 100 µM | SNB-78 > 100 µM | LXFL 529 > 100 µM | DLD-1 > 100 µM | DMS-273 > 100 µM | XF498 > 100 µM | DMS-114 > 100 µM

O=C(O)CNCc1c2ccccc2nc2ccccc12
inactive: M19-MEL 54.7 µM | SNB-78 54 µM | LXFL 529 26.5 µM | HOP-18 > 100 µM | DLD-1 33.3 µM | DMS-273 40.2 µM | XF498 28.8 µM | DMS-114 20.7 µM

Cc1ccc(S(=O)(=O)SCc2ccccc2)cc1
inactive: M19-MEL 33.7 µM | SNB-78 18.5 µM | LXFL 529 14.3 µM | HOP-18 > 80.4 µM | DLD-1 5.31 µM | DMS-273 28.1 µM | XF498 35.5 µM | DMS-114 22.2 µM

CCN(CC)c1ccc(/N=C2/C=CC(=C(C#N)C#N)c3ccccc32)c(C)c1
inactive: M19-MEL 1.94 µM | SNB-78 1.63 µM | HOP-18 2.32 µM | DLD-1 2.44 µM | DMS-273 1.85 µM | XF498 1.44 µM

COc1ccccc1NC(=O)CC(=O)NNCC(=O)Nc1nnc(-c2ccccc2)o1
inactive: M19-MEL > 100 µM | SNB-78 > 100 µM | LXFL 529 > 100 µM | DLD-1 > 100 µM | DMS-273 > 100 µM | XF498 > 100 µM | RXF 631 > 100 µM | DMS-114 > 100 µM

Cc1cccc2[n+]1[C@H]1[C@H]([C@@H]3O[C@H]1c1ccccc13)[S+]([O-])N2 (stereo not given in full)
inactive: M19-MEL 29.9 µM | SNB-78 23.3 µM | LXFL 529 33.7 µM | HOP-18 21.2 µM | DLD-1 > 100 µM | DMS-273 27.2 µM | XF498 20.2 µM | RXF 631 > 100 µM | DMS-114 22.7 µM

C=CCN(N=O)C(=O)N(CCCC(NC(C)=O)C(=O)NCc1ccccc1)Cc1ccccc1 (stereo not given)
inactive: M19-MEL 44.4 µM | LXFL 529 46.1 µM | DMS-273 95.7 µM | XF498 36.3 µM | RXF 631 47.2 µM | DMS-114 36.9 µM

O=C(/C=C1/NC(=O)CS1)Nc1ccccc1
inactive: M19-MEL > 100 µM | SNB-78 > 100 µM | LXFL 529 > 100 µM | HOP-18 > 100 µM | DLD-1 > 100 µM | DMS-273 > 100 µM | XF498 > 100 µM | RXF 631 > 100 µM | DMS-114 > 100 µM

CCOc1ccc(/N=C/c2cccc3cccnc23)cc1
inactive: M19-MEL > 100 µM | SNB-78 > 100 µM | LXFL 529 13.2 µM | HOP-18 > 100 µM | DLD-1 51.4 µM | DMS-273 81.3 µM | XF498 > 100 µM | RXF 631 > 100 µM | DMS-114 88.7 µM

Cc1ccccc1NC(=O)Cc1nc2ccccc2s1
inactive: SNB-78 18.6 µM | LXFL 529 16.4 µM | HOP-18 1.72 µM | DLD-1 7.08 µM | DMS-273 17.6 µM | XF498 14.5 µM | RXF 631 16 µM

Nc1ccc(C(=O)N/C(=C\c2cccc([N+](=O)[O-])c2)c2nc3cc(Cl)ccc3[nH]2)cc1
inactive: M19-MEL > 100 µM | SNB-78 > 100 µM | LXFL 529 31 µM | DLD-1 > 100 µM | XF498 43.1 µM | RXF 631 63 µM | DMS-114 > 100 µM

Source: ChEMBL document CHEMBL1201862, “PubChem BioAssay data set” (2004)
